Legend:
barnyard grass [1] = assay: Test Example 5: herbicidal effect by foliage application, plastic box (Table 20, symbol H); assay type: in vivo, barnyard grass (Echinochloa crus-galli)
Procedure, shortened: (§1)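 Plants sown in sterilized diluvial soil and grown 14 days in a greenhouse at 25° C to 30° C, then sprayed on the foliage with the compound's emulsion diluted in water to a predetermined herbicide amount. Injury to weeds and crops scored three weeks after application on a visual rating scale.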

wild oat [2] = assay: Test Example 4: herbicidal effect by soil treatment (Table 19, symbol I); assay type: in vivo, wild oat (Avena fatua)
Procedure, shortened: (§2)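 Seeds were sown in sterilized diluvial soil and covered with about 1.5 cm of soil. An emulsion formulation diluted with water to a predetermined herbicide amount was sprayed evenly onto the soil surface. Plants grew in a greenhouse at 25° C. to 30° C., and the effect was scored three weeks after application using criteria from an earlier test.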

Italian ryegrass [3] = assay: Test Example 5: herbicidal effect by foliage application, plastic box (Table 20, symbol K); assay type: in vivo, Italian ryegrass (Lolium multiflorum)
Procedure, shortened: as §1

lambsquarters [4] = assay: Test Example 4: herbicidal effect by soil treatment (Table 19, symbol O); assay type: in vivo, lambsquarters (Chenopodium album)
Procedure, shortened: as §2

redroot pigweed [5] = assay: Test Example 5: herbicidal effect by foliage application, plastic box (Table 20, symbol N); assay type: in vivo, redroot pigweed (Amaranthus retroflexus)
Procedure, shortened: as §1

blackgrass [6] = assay: Test Example 5: herbicidal effect by foliage application, plastic box (Table 20, symbol J); assay type: in vivo, blackgrass (Alopecurus myosuroides)
Procedure, shortened: as §1

windgrass [7] = assay: Test Example 5: herbicidal effect by foliage application, plastic box (Table 20, symbol L); assay type: in vivo, windgrass (Apera spica-venti)
Procedure, shortened: as §1

velvetleaf [8] = assay: Test Example 4: herbicidal effect by soil treatment (Table 19, symbol M); assay type: in vivo, velvetleaf (Abutilon theophrasti)
Procedure, shortened: as §2

southern crabgrass [9] = assay: Test Example 4: herbicidal effect by soil treatment (Table 19, symbol F); assay type: in vivo, southern crabgrass (Digitaria ciliaris)
Procedure, shortened: as §2

blackgrass [10] = assay: Test Example 4: herbicidal effect by soil treatment (Table 19, symbol J); assay type: in vivo, blackgrass (Alopecurus myosuroides)
Procedure, shortened: as §2

Italian ryegrass [11] = assay: Test Example 4: herbicidal effect by soil treatment (Table 19, symbol K); assay type: in vivo, Italian ryegrass (Lolium multiflorum)
Procedure, shortened: as §2

Chinese sprangletop = assay: Test Example 3: herbicidal effect by foliage application, Wagner pot (Table 18, symbol D); assay type: in vivo, chinese sprangletop (Leptochloa chinensis); details: 320 g/ha
Procedure, shortened: (§3)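 Plants were sown in alluvial soil held under 0.1–0.5 cm standing water and grown 14 days in a greenhouse at 25–30 °C. An emulsifiable formulation, water-diluted to the set dose, was then sprayed onto the foliage, and effects were scored three weeks later using previously defined criteria.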

redroot pigweed [12] = assay: Test Example 4: herbicidal effect by soil treatment (Table 19, symbol N); assay type: in vivo, redroot pigweed (Amaranthus retroflexus)
Procedure, shortened: as §2

green foxtail [13] = assay: Test Example 5: herbicidal effect by foliage application, plastic box (Table 20, symbol G); assay type: in vivo, green foxtail (Setaria viridis)
Procedure, shortened: as §1

barnyard grass [14] = assay: Test Example 4: herbicidal effect by soil treatment (Table 19, symbol H); assay type: in vivo, barnyard grass (Echinochloa crus-galli)
Procedure, shortened: as §2

rice flat sedge = assay: Test Example 3: herbicidal effect by foliage application, Wagner pot (Table 18, symbol E); assay type: in vivo, rice flat sedge (Cyperus iria); details: 320 g/ha
Procedure, shortened: as §3

velvetleaf [15] = assay: Test Example 5: herbicidal effect by foliage application, plastic box (Table 20, symbol M); assay type: in vivo, velvetleaf (Abutilon theophrasti)
Procedure, shortened: as §1

lambsquarters [16] = assay: Test Example 5: herbicidal effect by foliage application, plastic box (Table 20, symbol O); assay type: in vivo, lambsquarters (Chenopodium album)
Procedure, shortened: as §1

wild oat [17] = assay: Test Example 5: herbicidal effect by foliage application, plastic box (Table 20, symbol I); assay type: in vivo, wild oat (Avena fatua)
Procedure, shortened: as §1

chickweed [18] = assay: Test Example 5: herbicidal effect by foliage application, plastic box (Table 20, symbol P); assay type: in vivo, common chickweed (Stellaria media)
Procedure, shortened: as §1

persian speedwell [19] = assay: Test Example 5: herbicidal effect by foliage application, plastic box (Table 20, symbol R); assay type: in vivo, Persian speedwell (Veronica persica)
Procedure, shortened: as §1

southern crabgrass [20] = assay: Test Example 5: herbicidal effect by foliage application, plastic box (Table 20, symbol F); assay type: in vivo, southern crabgrass (Digitaria ciliaris)
Procedure, shortened: as §1

barnyard grass [21] = assay: Test Example 3: herbicidal effect by foliage application, Wagner pot (Table 18, symbol H); assay type: in vivo, barnyard grass (Echinochloa crus-galli); details: 320 g/ha
Procedure, shortened: as §3

green foxtail [22] = assay: Test Example 4: herbicidal effect by soil treatment (Table 19, symbol G); assay type: in vivo, green foxtail (Setaria viridis)
Procedure, shortened: as §2

windgrass [23] = assay: Test Example 4: herbicidal effect by soil treatment (Table 19, symbol L); assay type: in vivo, windgrass (Apera spica-venti)
Procedure, shortened: as §2

chickweed [24] = assay: Test Example 4: herbicidal effect by soil treatment (Table 19, symbol P); assay type: in vivo, common chickweed (Stellaria media)
Procedure, shortened: as §2

persian speedwell [25] = assay: Test Example 4: herbicidal effect by soil treatment (Table 19, symbol R); assay type: in vivo, Persian speedwell (Veronica persica)
Procedure, shortened: as §2

[26] = 320 g/ha, foliage application after 14-day growth, evaluated three weeks after application
[27] = amount of applied herbicide 320 g/ha
[28] = foliage application, AAH 320 g/ha, three weeks after application

CCCC(=O)Oc1c(C)nn(C)c(=O)c1-c1c(-c2ccc(F)cc2OC)sc2c(Cl)cccc12 [4-034]
herbicidal effect on H: barnyard grass (evaluation grade 0-5) (barnyard grass [1]; [26]): 3 (Herbicidal rate of 40% or more and less than 70%)
Herbicidal effect by soil treatment, I: wild oat (wild oat [2]; [27]): 0 (Herbicidal rate of 5% or less (almost no effect))
herbicidal effect on K: Italian ryegrass (evaluation grade 0-5) (Italian ryegrass [3]; [26]): 0 (Herbicidal rate of 5% or less (almost no effect))
Herbicidal effect by soil treatment, O: lambsquarters (lambsquarters [4]; [27]): 3 (Herbicidal rate of 40% or more and less than 70%)
herbicidal effect on N: redroot pigweed (evaluation grade 0-5) (redroot pigweed [5]; [26]): 1 (Herbicidal rate of 5% or more and less than 20%)
herbicidal effect on J: blackgrass (evaluation grade 0-5) (blackgrass [6]; [26]): 0 (Herbicidal rate of 5% or less (almost no effect))
herbicidal effect on L: windgrass (evaluation grade 0-5) (windgrass [7]; [26]): 5 (Herbicidal rate of 90% or more (almost completely withered))
Herbicidal effect by soil treatment, M: velvetleaf (velvetleaf [8]; [27]): 2 (Herbicidal rate of 20% or more and less than 40%)
Herbicidal effect by soil treatment, F: southern crabgrass (southern crabgrass [9]; [27]): 3 (Herbicidal rate of 40% or more and less than 70%)
Herbicidal effect by soil treatment, J: blackgrass (blackgrass [10]; [27]): 0 (Herbicidal rate of 5% or less (almost no effect))
Herbicidal effect by soil treatment, K: Italian ryegrass (Italian ryegrass [11]; [27]): 0 (Herbicidal rate of 5% or less (almost no effect))
herbicidal effect on Chinese sprangletop (D) (Chinese sprangletop): 5 (Herbicidal rate of 90% or more (almost completely withered))
Herbicidal effect by soil treatment, N: redroot pigweed (redroot pigweed [12]; [27]): 4 (Herbicidal rate of 70% or more and less than 90%)
herbicidal effect on G: green foxtail (evaluation grade 0-5) (green foxtail [13]; [26]): 3 (Herbicidal rate of 40% or more and less than 70%)
Herbicidal effect by soil treatment, H: barnyard grass (barnyard grass [14]; [27]): 3 (Herbicidal rate of 40% or more and less than 70%)
herbicidal effect on rice flat sedge (E) (rice flat sedge): 4 (Herbicidal rate of 70% or more and less than 90%)
herbicidal effect on M: velvetleaf (evaluation grade 0-5) (velvetleaf [15]; [26]): 3 (Herbicidal rate of 40% or more and less than 70%)
herbicidal effect on O: lambsquarters (evaluation grade 0-5) (lambsquarters [16]; [26]): 0 (Herbicidal rate of 5% or less (almost no effect))
herbicidal effect on I: wild oat (evaluation grade 0-5) (wild oat [17]; [26]): 0 (Herbicidal rate of 5% or less (almost no effect))
herbicidal effect on P: chickweed (evaluation grade 0-5) (chickweed [18]; [26]): 5 (Herbicidal rate of 90% or more (almost completely withered))
herbicidal effect on R: persian speedwell (evaluation grade 0-5) (persian speedwell [19]; [26]): 4 (Herbicidal rate of 70% or more and less than 90%)
herbicidal effect on F: southern crabgrass (evaluation grade 0-5) (southern crabgrass [20]; [26]): 0 (Herbicidal rate of 5% or less (almost no effect))
herbicidal effect on barnyard grass (H) (barnyard grass [21]): 4 (Herbicidal rate of 70% or more and less than 90%)
Herbicidal effect by soil treatment, G: green foxtail (green foxtail [22]; [27]): 4 (Herbicidal rate of 70% or more and less than 90%)
Herbicidal effect by soil treatment, L: windgrass (windgrass [23]; [27]): 0 (Herbicidal rate of 5% or less (almost no effect))
Herbicidal effect by soil treatment, P: chickweed (chickweed [24]; [27]): 0 (Herbicidal rate of 5% or less (almost no effect))
Herbicidal effect by soil treatment, R: persian speedwell (persian speedwell [25]; [27]): 0 (Herbicidal rate of 5% or less (almost no effect))

CCCC(=O)Oc1c(C)nn(C)c(=O)c1-c1c(-c2cccc(C#N)c2)sc2ccccc12 [1-124]
H: barnyard grass, herbicidal effect (barnyard grass [1]; [28]): 0 (Herbicidal rate of 5% or less (almost no effect))
I: wild oat, herbicidal effect rating (wild oat [2]; AAH 320 g/ha): 0 (Herbicidal rate of 5% or less (almost no effect))
K: Italian ryegrass, herbicidal effect (Italian ryegrass [3]; [28]): 0 (Herbicidal rate of 5% or less (almost no effect))
O: lambsquarters, herbicidal effect rating (lambsquarters [4]; AAH 320 g/ha): 0 (Herbicidal rate of 5% or less (almost no effect))
N: redroot pigweed, herbicidal effect (redroot pigweed [5]; [28]): 4 (Herbicidal rate of 70% or more and less than 90%)
J: blackgrass, herbicidal effect (blackgrass [6]; [28]): 0 (Herbicidal rate of 5% or less (almost no effect))
L: windgrass, herbicidal effect (windgrass [7]; [28]): 0 (Herbicidal rate of 5% or less (almost no effect))
M: velvetleaf, herbicidal effect rating (velvetleaf [8]; AAH 320 g/ha): 0 (Herbicidal rate of 5% or less (almost no effect))
F: southern crabgrass, herbicidal effect rating (southern crabgrass [9]; AAH 320 g/ha): 0 (Herbicidal rate of 5% or less (almost no effect))
J: blackgrass, herbicidal effect rating (blackgrass [10]; AAH 320 g/ha): 0 (Herbicidal rate of 5% or less (almost no effect))
K: Italian ryegrass, herbicidal effect rating (Italian ryegrass [11]; AAH 320 g/ha): 0 (Herbicidal rate of 5% or less (almost no effect))
herbicidal effect on D (Chinese sprangletop), rating 0-5 (Chinese sprangletop): 2 (Herbicidal rate of 20% or more and less than 40%)
N: redroot pigweed, herbicidal effect rating (redroot pigweed [12]; AAH 320 g/ha): 0 (Herbicidal rate of 5% or less (almost no effect))
G: green foxtail, herbicidal effect (green foxtail [13]; [28]): 0 (Herbicidal rate of 5% or less (almost no effect))
H: barnyard grass, herbicidal effect rating (barnyard grass [14]; AAH 320 g/ha): 0 (Herbicidal rate of 5% or less (almost no effect))
herbicidal effect on E (rice flat sedge), rating 0-5 (rice flat sedge): 3 (Herbicidal rate of 40% or more and less than 70%)
M: velvetleaf, herbicidal effect (velvetleaf [15]; [28]): 3 (Herbicidal rate of 40% or more and less than 70%)
O: lambsquarters, herbicidal effect (lambsquarters [16]; [28]): 3 (Herbicidal rate of 40% or more and less than 70%)
I: wild oat, herbicidal effect (wild oat [17]; [28]): 0 (Herbicidal rate of 5% or less (almost no effect))
P: chickweed, herbicidal effect (chickweed [18]; [28]): 0 (Herbicidal rate of 5% or less (almost no effect))
R: persian speedwell, herbicidal effect (persian speedwell [19]; [28]): 1 (Herbicidal rate of 5% or more and less than 20%)
F: southern crabgrass, herbicidal effect (southern crabgrass [20]; [28]): 0 (Herbicidal rate of 5% or less (almost no effect))
herbicidal effect on H (barnyard grass), rating 0-5 (barnyard grass [21]): 0 (Herbicidal rate of 5% or less (almost no effect))
G: green foxtail, herbicidal effect rating (green foxtail [22]; AAH 320 g/ha): 0 (Herbicidal rate of 5% or less (almost no effect))
L: windgrass, herbicidal effect rating (windgrass [23]; AAH 320 g/ha): 0 (Herbicidal rate of 5% or less (almost no effect))
P: chickweed, herbicidal effect rating (chickweed [24]; AAH 320 g/ha): 3 (Herbicidal rate of 40% or more and less than 70%)
R: persian speedwell, herbicidal effect rating (persian speedwell [25]; AAH 320 g/ha): 0 (Herbicidal rate of 5% or less (almost no effect))

— patent publication US20230085307A1, “PYRIDAZINONE COMPOUND AND HERBICIDE” (NISSAN CHEMICAL CORPORATION, priority 2019, published 2023)
